Results published in paper PMC8201479, “Trisubstituted Pyrrolinones as Small-Molecule Inhibitors Disrupting the Protein–RNA Interaction of LIN28 and Let-7” (ACS Medicinal Chemistry Letters, 2021).

Target: T1, cold shock domain of LIN28A (residues 16–126) (Homo sapiens, UniProt Q9H9Z2)
T1 construct: cold shock domain construct LIN28 A (residues 16– 126)
T1 sequence (Q9H9Z2 16-126): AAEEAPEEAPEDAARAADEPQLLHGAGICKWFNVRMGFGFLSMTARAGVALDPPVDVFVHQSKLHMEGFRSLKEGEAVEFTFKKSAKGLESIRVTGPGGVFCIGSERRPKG
Assay: Thermal shift assay (nano-differential scanning fluorimetry)
Type: binding
Details: 30 µM protein, compound 100 µM to 0.78 µM
Experimental: was detected after incubation at room temperature using a TECAN Spark plate reader. Half maximal […]
inhibitory concentrations (IC50) were determined using GraphPad Prism 7.
Compound screening. High throughput screening was performed in low volume 384 well plates […]
(Corning 4514) with 30 µM compound, 40 nM LIN28A, and 2 nM preE-let-7f-1-FAM in FP assay […]
buffer. Compounds were transferred with an ECHO 520 liquid handler and protein and RNA were […]
added with a multidrop dispenser. Protein and RNA were added stepwise with a 30 min incubation […]
period in between. FP was detected after a final incubation of 15 min with an Envision plate reader […]
and fluorescence was measured with a Paradigm plate reader. A reaction without LIN28 served as a […]
negative control and one without compound was used as a positive control. The software Quattro […]
fluorescence was detected with a ChemiDoc M P (Bio-Rad) and 2 minutes of exposure time. […]
126) with and without compound was monitored using a NanoTemper Prometheus NT.48 nano - […]
differential scanning fluorimetry (nanoDSF) instrument at temperatures between 20 °C and 90 °C and a temperature slope of 1 °C per minute with an excitation power of 50–60 %. […] The ratio of intrinsic tryptophan fluorescence at 350 nm and 330 nm was measured and the first derivative was determined to detect the inflection points using the software of the device. […]

thermal stability of the CSD of LIN28A: concentration-dependent enhancement
Compound: O=C(C1=C(O)C(=O)N(c2ccc(O)c(C(=O)O)c2)C1c1ccc(-c2nccs2)cc1)c1ccc(Br)cc1 (stereo not shown) [C902/PH-31]
